Assay [1] relates to human breast cancer cell MDA-MB-468. As to the kind of experiment: MTT proliferation assay, MDA-MB-468. Conditions: Homo sapiens, MDA-MB-468, 168 h, 7 days, single agent, read-out: IC50, inhibition of proliferation of MDA-MB-468. It is filed as cell-based. The gist of the method: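 Cells seeded overnight, then treated 7 days at 37 °C, 5% CO2 in RPMI 1640 + 5% FBS with 1% final DMSO, medium changed on day 4. MTT (0.5 mg/mL) for 4 h, DMSO-solubilised, absorbance at 552 and 693 nm; viability relative to DMSO after background subtraction, IC50 from log-concentration curves.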
For orientation: Tetrazolium assays rely on reduction of a dye to a coloured formazan, in cell work by metabolically active cells.

Assay [2] has as its system human colon cancer cell SW620. As to the kind of experiment: MTT proliferation assay in combination with CPT-11, SW620. It counts as cell-based. Conditions: Homo sapiens, SW-620, 120 h, medium containing 205 nM CPT-11, 5 days, read-out: IC50, inhibition of proliferation of SW620 combined with CPT-11. The gist of the method: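 SW620 cells in RPMI 1640 + 10% FBS are seeded overnight, then given compound in fresh medium containing 205 nM CPT-11 (1% DMSO final) for 5 days at 37 °C, 5% CO2. Viability is read by MTT (0.5 mg/mL, 4 h) at 552/690 nm, normalised to background-corrected DMSO wells. IC50 is taken from viability versus log concentration.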

The target of another assay is T1, ATM kinase (Homo sapiens, UniProt Q13315).
T1 construct: purchased Eurofins 14-933
T1 sequence (Q13315 whole entry): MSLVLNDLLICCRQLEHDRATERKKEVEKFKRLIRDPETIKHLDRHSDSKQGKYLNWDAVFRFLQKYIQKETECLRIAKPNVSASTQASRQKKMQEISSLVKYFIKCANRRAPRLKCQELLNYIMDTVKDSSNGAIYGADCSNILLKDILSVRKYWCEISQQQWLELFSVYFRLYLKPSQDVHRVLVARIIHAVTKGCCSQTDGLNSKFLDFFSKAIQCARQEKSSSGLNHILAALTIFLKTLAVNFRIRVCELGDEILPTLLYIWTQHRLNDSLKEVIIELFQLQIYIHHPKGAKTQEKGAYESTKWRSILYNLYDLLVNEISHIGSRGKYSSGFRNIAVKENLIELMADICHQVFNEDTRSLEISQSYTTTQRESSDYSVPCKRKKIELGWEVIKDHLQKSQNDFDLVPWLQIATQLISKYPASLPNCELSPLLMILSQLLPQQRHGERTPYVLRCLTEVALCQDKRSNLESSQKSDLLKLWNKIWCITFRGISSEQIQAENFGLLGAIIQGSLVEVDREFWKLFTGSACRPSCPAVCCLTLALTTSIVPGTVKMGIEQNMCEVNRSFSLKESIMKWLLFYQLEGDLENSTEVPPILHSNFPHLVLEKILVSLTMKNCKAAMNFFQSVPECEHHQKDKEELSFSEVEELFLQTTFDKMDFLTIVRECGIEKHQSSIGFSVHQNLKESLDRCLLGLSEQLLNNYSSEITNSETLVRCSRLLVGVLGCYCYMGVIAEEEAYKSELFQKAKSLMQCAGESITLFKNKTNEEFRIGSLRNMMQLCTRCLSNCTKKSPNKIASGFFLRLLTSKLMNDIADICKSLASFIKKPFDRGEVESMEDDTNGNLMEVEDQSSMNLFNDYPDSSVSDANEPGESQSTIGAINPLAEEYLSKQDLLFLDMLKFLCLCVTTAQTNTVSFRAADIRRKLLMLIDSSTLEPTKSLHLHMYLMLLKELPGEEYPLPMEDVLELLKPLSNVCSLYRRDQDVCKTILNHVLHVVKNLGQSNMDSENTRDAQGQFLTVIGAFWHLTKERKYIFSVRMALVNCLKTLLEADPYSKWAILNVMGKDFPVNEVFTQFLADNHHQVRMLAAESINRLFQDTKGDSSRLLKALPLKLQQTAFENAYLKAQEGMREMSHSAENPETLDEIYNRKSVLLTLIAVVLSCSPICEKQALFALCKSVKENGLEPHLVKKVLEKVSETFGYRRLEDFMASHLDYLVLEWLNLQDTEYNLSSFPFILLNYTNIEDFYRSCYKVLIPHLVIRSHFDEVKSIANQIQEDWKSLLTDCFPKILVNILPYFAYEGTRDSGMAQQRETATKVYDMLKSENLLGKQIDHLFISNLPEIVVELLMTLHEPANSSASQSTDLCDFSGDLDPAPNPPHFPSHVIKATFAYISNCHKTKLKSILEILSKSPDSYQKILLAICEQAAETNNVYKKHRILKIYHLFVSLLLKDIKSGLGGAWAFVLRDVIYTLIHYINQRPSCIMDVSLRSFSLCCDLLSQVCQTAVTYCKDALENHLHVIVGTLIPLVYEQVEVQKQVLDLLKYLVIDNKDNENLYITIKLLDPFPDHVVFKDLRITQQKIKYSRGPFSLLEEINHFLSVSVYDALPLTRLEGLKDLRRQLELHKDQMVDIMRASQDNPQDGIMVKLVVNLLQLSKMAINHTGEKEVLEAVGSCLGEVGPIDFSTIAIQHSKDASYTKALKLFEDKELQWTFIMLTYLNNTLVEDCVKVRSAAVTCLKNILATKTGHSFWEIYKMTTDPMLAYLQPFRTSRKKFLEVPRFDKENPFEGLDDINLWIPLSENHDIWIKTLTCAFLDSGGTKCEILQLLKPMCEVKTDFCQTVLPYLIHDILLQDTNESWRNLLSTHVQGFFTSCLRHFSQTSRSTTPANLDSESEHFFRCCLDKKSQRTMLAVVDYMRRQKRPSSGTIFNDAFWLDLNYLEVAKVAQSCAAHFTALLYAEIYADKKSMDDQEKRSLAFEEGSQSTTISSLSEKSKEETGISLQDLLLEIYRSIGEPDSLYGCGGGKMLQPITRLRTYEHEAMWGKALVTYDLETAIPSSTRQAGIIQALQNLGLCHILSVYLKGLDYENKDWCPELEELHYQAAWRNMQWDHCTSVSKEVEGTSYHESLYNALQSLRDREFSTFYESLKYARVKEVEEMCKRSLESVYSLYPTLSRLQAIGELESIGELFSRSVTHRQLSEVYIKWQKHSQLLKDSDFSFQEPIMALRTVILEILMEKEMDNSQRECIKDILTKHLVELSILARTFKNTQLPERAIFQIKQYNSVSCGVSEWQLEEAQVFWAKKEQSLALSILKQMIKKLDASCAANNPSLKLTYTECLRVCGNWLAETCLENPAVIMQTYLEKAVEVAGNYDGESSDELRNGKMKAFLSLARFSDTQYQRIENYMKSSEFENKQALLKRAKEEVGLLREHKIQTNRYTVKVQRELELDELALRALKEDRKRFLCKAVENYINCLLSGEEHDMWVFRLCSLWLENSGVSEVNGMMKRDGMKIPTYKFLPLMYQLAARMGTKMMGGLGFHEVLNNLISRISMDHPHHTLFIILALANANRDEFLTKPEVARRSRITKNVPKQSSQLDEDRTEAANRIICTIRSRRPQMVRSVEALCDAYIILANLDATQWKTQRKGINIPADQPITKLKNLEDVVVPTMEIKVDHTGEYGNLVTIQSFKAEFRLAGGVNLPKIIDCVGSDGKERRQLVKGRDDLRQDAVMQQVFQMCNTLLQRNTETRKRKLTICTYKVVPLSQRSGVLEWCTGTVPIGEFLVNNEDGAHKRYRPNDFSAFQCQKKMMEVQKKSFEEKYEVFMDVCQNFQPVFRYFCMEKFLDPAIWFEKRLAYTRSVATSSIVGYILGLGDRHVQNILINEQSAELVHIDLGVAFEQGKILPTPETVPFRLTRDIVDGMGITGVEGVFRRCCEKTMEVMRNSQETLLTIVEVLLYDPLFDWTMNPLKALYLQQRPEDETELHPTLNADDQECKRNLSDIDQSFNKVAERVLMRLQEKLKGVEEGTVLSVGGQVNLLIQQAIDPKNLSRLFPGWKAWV
As to the kind of experiment: In vitro ATM kinase assay (Cisbio HTRF, p53 substrate). It is filed as biochemical. Conditions: 30 μM ATP.

This is an account of results in patent US12653830B2, “Substituted imidazoquinoxaline compounds and uses thereof” (Impact Therapeutics (Shanghai), Inc, priority 2019, dated 2026).

Take `Cc1nc(N2C[C@@H](C)O[C@@H](C)C2)n2c1cnc1ccc(-c3ccc(N4CCC(N(C)C)CC4)nc3)cc12` [Example 38, 1-(5-(1-((2S,6R)-2,6-dimethylmorpholino)-3-methylimidazo[1,5-a]quinoxalin-8-yl)pyridin-2-yl)-N,N-dimethylpiperidin-4-amine]: the IC50 in assay [1] was 6.9 nM; in assay [2] it was 8.7 nM; at ATM kinase, 0.2 nM.

For `Cc1nc(N2C[C@@H](C)O[C@@H](C)C2)n2c1cnc1ccc(-c3ccc(N4CCC(N(C)C)CC4)c(F)c3)cc12` [Example 39, 1-(4-(1-((2S,6R)-2,6-dimethylmorpholino)-3-methylimidazo[1,5-a]quinoxalin-8-yl)-2-fluorophenyl)-N,N-dimethylpiperidin-4-amine], the results for the IC50 (in assay [1]; in assay [2]; at ATM kinase) were 7.4 nM, 7.3 nM and 0.2 nM, respectively.

Regarding `Cc1nc(N2C[C@@H](C)O[C@@H](C)C2)n2c1cnc1ccc(-c3ccc(N4CCC(N(C)C)CC4)c(Cl)c3)cc12` [Example 40, 1-(2-chloro-4-(1-((2S,6R)-2,6-dimethylmorpholino)-3-methylimidazo[1,5-a]quinoxalin-8-yl)phenyl)-N,N-dimethylpiperidin-4-amine], the IC50 in assay [1] is 6.5 nM; in assay [2] it was 8.1 nM; against ATM kinase it was 0.2 nM.

On to `CCc1nc(N2C[C@@H](C)O[C@@H](C)C2)n2c1cnc1ccc(-c3ccc(OCCCN(C)C)nc3)cc12` [Example 41, 3-((5-(1-((2S,6R)-2,6-dimethylmorpholino)-3-ethylimidazo[1,5-a]quinoxalin-8-yl)pyridin-2-yl)oxy)-N,N-dimethylpropan-1-amine], for which the IC50 in assay [1] worked out at 42.6 nM; in assay [2], 54.3 nM; against ATM kinase it was 0.15 nM.

As for `C[C@@H]1CN(c2ncc3cnc4ccc(-c5ccc(OCCCN(C)C)nc5)cc4n23)C[C@H](C)O1` [Example 43, 3-((5-(1-((2S,6R)-2,6-dimethylmorpholino)imidazo[1,5-a]quinoxalin-8-yl)pyridin-2-yl)oxy)-N,N-dimethylpropan-1-amine], the IC50 in assay [1] was 16.7 nM; in assay [2], 17.9 nM; against ATM kinase it was 0.41 nM.

For `Cc1nc(N2C[C@@H](C)O[C@@H](C)C2)n2c1cnc1ccc(-c3ccc(NCCCN(C)C)nc3)cc12` [Example 46, N^1-(5-(1-((2S,6R)-2,6-dimethylmorpholino)-3-methylimidazo[1,5-a]quinoxalin-8-yl)pyridin-2-yl)-N^3,N^3-dimethylpropane-1,3-diamine], the IC50 is 40.2 nM in assay [1], 46.9 nM in assay [2] and 0.18 nM on ATM kinase.

For `Cc1nc(N2C[C@@H](C)O[C@@H](C)C2)n2c1cnc1ccc(-c3ccc(N4CCC(N)CC4)nc3)cc12` [Example 48, 1-(5-(1-((2S,6R)-2,6-dimethylmorpholino)-3-methylimidazo[1,5-a]quinoxalin-8-yl)pyridin-2-yl)piperidin-4-amine], the IC50 was determined as 7.6 nM in assay [1], 12.1 nM in assay [2] and 0.46 nM at ATM kinase.

Regarding `CNC1CCN(c2ccc(-c3ccc4ncc5c(C)nc(N6C[C@@H](C)O[C@@H](C)C6)n5c4c3)cn2)CC1` [Example 49, 1-(5-(1-((2S,6R)-2,6-dimethylmorpholino)-3-methylimidazo[1,5-a]quinoxalin-8-yl)pyridin-2-yl)-N-methylpiperidin-4-amine], the results for the IC50 (in assay [1]; in assay [2]; at ATM kinase) were 4.5 nM, 7.1 nM and 0.8 nM, respectively.

`CCNC1CCN(c2ccc(-c3ccc4ncc5c(C)nc(N6C[C@@H](C)O[C@@H](C)C6)n5c4c3)cn2)CC1` [Example 50, 1-(5-(1-((2S,6R)-2,6-dimethylmorpholino)-3-methylimidazo[1,5-a]quinoxalin-8-yl)pyridin-2-yl)-N-ethylpiperidin-4-amine]: the figures for the IC50 (in assay [1]; in assay [2]; at ATM kinase) were 8.1 nM, 6.3 nM and 0.41 nM, respectively.

For the compound `Cc1nc(N2C[C@@H](C)O[C@@H](C)C2)n2c1cnc1ccc(-c3ccc(OCCCN4CCOCC4)nc3)cc12` [Example 58, (2S,6R)-2,6-dimethyl-4-(3-methyl-8-(6-(3-morpholinopropoxy)pyridin-3-yl)imidazo[1,5-a]quinoxalin-1-yl)morpholine], the IC50 in assay [1] turned out to be 17.8 nM; in assay [2], 23.3 nM; at ATM kinase, 0.19 nM.

As for `Cc1nc(N2C[C@@H](C)O[C@@H](C)C2)n2c1cnc1ccc(-c3ccc(OCCCN4CCN(C)CC4)nc3)cc12` [Example 59, (2S,6R)-2,6-dimethyl-4-(3-methyl-8-(6-(3-(4-methylpiperazin-1-yl)propoxy)pyridin-3-yl)imidazo[1,5-a]quinoxalin-1-yl)morpholine], the values for the IC50 (in assay [1]; in assay [2]; against ATM kinase) were 9.2 nM, 12 nM and 0.19 nM, respectively.
